# Reference: patent publication US20250092065A1, “2-(INDAZOL-5-YL)-6-(PIPERIDIN-4-YL)-1,7-NAPHTHYRIDINE DERIVATIVES AND RELATED COMPOUNDS AS MODULATORS FOR SPLICING NUCLEIC ACIDS AND FOR THE TREATMENT OF PROLIFERATIVE DISEASES” (REMIX THERAPEUTICS INC., priority 2022, published 2025)
# Legend:
# Target C [1] = experiment: HiBiT protein abundance assay, Target C (K562 HiBiT knock-in); type: cell-based, human; details: HiBiT knock-in K562 cells, 24 hours, top dose 10 μM
# In short: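 K562 HiBiT knock-in cells (10000/well) were treated 24 h at 37° C with a 10-point 3-fold dilution series (top 10 μM final, ≤0.25% DMSO). HiBiT luminescence was read after lytic LgBiT detection. Percent response used unmodified K562 and DMSO-treated knock-in controls, and IC50 came from a four-parameter fit at 50% of untreated.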
# Target C [2] = experiment: RT-qPCR canonical junction panel assay, Target C mRNA; type: cell-based; details: Table 4, read-out: Target C IC50 (decrease in CJ mRNA levels)
# In short: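 IC50 is the concentration giving 50% CJ decrease, from a 4-parameter logistic fit of percent response; response derived from ΔΔCt against housekeeper and DMSO over a fixed ΔCt window, with canonical exon-junction qPCR in compound-treated K562 or A673 cells.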
IC50 (Target C [1]),IC50 (Target C [2]),Structure (SMILES)
< 100 nM,< 100 nM,"Cn1cc2cc(-c3ccc4nc(N5CCC(NC6CC6)C5)ccc4n3)c(O)c(F)c2n1 (racemic) [Compound 287, 5-{6-[3-(cyclopropylamino)pyrrolidin-1-yl]-1,5-naphthyridin-2-yl}-7-fluoro-2-methylindazol-6-ol; trifluoroacetic acid]"
< 100 nM,< 100 nM,"CC(C)N[C@@H]1CCN(c2ccc3nc(-c4cc5cn(C)nc5c(F)c4O)ccc3n2)C1 (single isomer, unassigned) [Compound 285]"
< 100 nM,< 100 nM,"CC(C)N[C@H]1CCN(c2ccc3nc(-c4cc5cn(C)nc5c(F)c4O)ccc3n2)C1 (single isomer, unassigned) [Compound 286]"
< 100 nM,< 100 nM,"Cc1c(O)c(-c2ccc3nc(N4CC[C@@H](NC5CCC5)C4)ccc3n2)cc2cn(C)nc12 (single isomer, unassigned) [Compound 289]"
< 100 nM,< 100 nM,"Cc1c(O)c(-c2ccc3nc(N4CC[C@H](NC5CCC5)C4)ccc3n2)cc2cn(C)nc12 (single isomer, unassigned) [Compound 290]"
100 to 1000 nM,100 to 1000 nM,"Cc1nc2cc(O)c(-c3ccc4nc(N5CCC(NCC6CC6)C5)ccc4n3)cc2o1 (single isomer, unassigned) [Compound 291, 6-(6-{3-[(cyclopropylmethyl)amino]pyrrolidin-1-yl}-1,5-naphthyridin-2-yl)-2-methyl-1,3-benzoxazol-5-ol]"
< 100 nM,100 to 1000 nM,"Cc1nc2cc(O)c(-c3ccc4nc(N5CCC(NCC6CC6)C5)ccc4n3)cc2o1 (single isomer, unassigned) [Compound 292, 6-(6-{3-[(cyclopropylmethyl)amino]pyrrolidin-1-yl}-1,5-naphthyridin-2-yl)-2-methyl-1,3-benzoxazol-5-ol]"
< 100 nM,100 to 1000 nM,"Cc1nc2c(C)c(O)c(-c3ccc4nc(N5CC[C@@H](NCC6CC6)C5)ccc4n3)cc2o1 (single isomer, unassigned) [Compound 295]"
< 100 nM,< 100 nM,"Cc1nc2c(C)c(O)c(-c3ccc4nc(N5CC[C@H](NCC6CC6)C5)ccc4n3)cc2o1 (single isomer, unassigned) [Compound 296]"
< 100 nM,< 100 nM,"Cn1cc2cc(-c3ccc4nc(N5CC[C@@H](N[C@H]6C[C@@H](F)C6)C5)ccc4n3)c(O)cc2n1 (single isomer, unassigned) [Compound 300]"
< 100 nM,< 100 nM,"Cn1cc2cc(-c3ccc4nc(N5CC[C@@H](NCC6CC6)C5)ccc4n3)c(O)c(F)c2n1 (single isomer, unassigned) [Compound 303]"
< 100 nM,< 100 nM,"Cn1cc2cc(-c3ccc4nc(N5CC[C@H](NCC6CC6)C5)ccc4n3)c(O)c(F)c2n1 (single isomer, unassigned) [Compound 304]"
< 100 nM,< 100 nM,"Cn1cc2cc(-c3ccc4nc(N5CC[C@@H](NC6CC6)C5)ccc4n3)c(O)c(F)c2n1 (single isomer, unassigned) [Compound 305]"
< 100 nM,< 100 nM,"Cn1cc2cc(-c3ccc4nc(N5CC[C@H](NC6CC6)C5)ccc4n3)c(O)c(F)c2n1 (single isomer, unassigned) [Compound 306]"
< 100 nM,< 100 nM,"Cc1nc2c(F)c(O)c(-c3ccc4nc(N5CC[C@@H](NC6CCC6)C5)ccc4n3)cc2o1 (single isomer, unassigned) [Compound 307]"
< 100 nM,< 100 nM,"Cc1nc2c(F)c(O)c(-c3ccc4nc(N5CC[C@H](NC6CCC6)C5)ccc4n3)cc2o1 (single isomer, unassigned) [Compound 308]"
< 100 nM,< 100 nM,"Cc1nc2c(C)c(O)c(-c3ccc4nc(N5CC[C@@H](NC6(C)CC6)C5)ccc4n3)cc2o1 (single isomer, unassigned) [Compound 310]"
< 100 nM,100 to 1000 nM,"Cc1nc2c(C)c(O)c(-c3ccc4nc(N5CC[C@H](NC6(C)CC6)C5)ccc4n3)cc2o1 (single isomer, unassigned) [Compound 311]"
< 100 nM,< 100 nM,"Cc1nc2c(C)c(O)c(-c3ccc4nc(N5CC[C@@H](NC(C)C)C5)ccc4n3)cc2o1 (single isomer, unassigned) [Compound 313]"
< 100 nM,< 100 nM,"Cc1nc2c(C)c(O)c(-c3ccc4nc(N5CC[C@H](NC(C)C)C5)ccc4n3)cc2o1 (single isomer, unassigned) [Compound 314]"
< 100 nM,< 100 nM,"Cn1cc2cc(-c3ccc4nc(N5CC[C@@H](NC6CCC6)C5)ccc4n3)c(O)c(F)c2n1 (single isomer, unassigned) [Compound 316]"
< 100 nM,< 100 nM,"Cn1cc2cc(-c3ccc4nc(N5CC[C@H](NC6CCC6)C5)ccc4n3)c(O)c(F)c2n1 (single isomer, unassigned) [Compound 317]"
< 100 nM,< 100 nM,"Cc1c(O)c(-c2ccc3nc(N4CC[C@@H](NC(C)C)C4)ccc3n2)cc2cn(C)nc12 (single isomer, unassigned) [Compound 319]"

IC50 (Target C [1]),IC50 (Target C [2]),Structure (SMILES)
< 100 nM,< 100 nM,"Cc1c(O)c(-c2ccc3nc(N4CC[C@H](NCC5CC5)C4)ccc3n2)cc2cn(C)nc12 (single isomer, unassigned) [Compound 321]"
< 100 nM,< 100 nM,"Cc1c(O)c(-c2ccc3nc(N4CC[C@@H](NCC5CC5)C4)ccc3n2)cc2cn(C)nc12 (single isomer, unassigned) [Compound 322]"
< 100 nM,< 100 nM,"Cc1nc2c(F)c(O)c(-c3ccc4nc(N5CC[C@@H](NCC6CC6)C5)ccc4n3)cc2o1 (single isomer, unassigned) [Compound 323]"
< 100 nM,< 100 nM,"Cc1nc2c(F)c(O)c(-c3ccc4nc(N5CC[C@H](NCC6CC6)C5)ccc4n3)cc2o1 (single isomer, unassigned) [Compound 324]"
< 100 nM,< 100 nM,"Cc1nc2c(F)c(O)c(-c3ccc4nc(N5CC[C@@H](NC(C)C)C5)ccc4n3)cc2o1 (single isomer, unassigned) [Compound 329]"
< 100 nM,< 100 nM,"Cc1nc2c(F)c(O)c(-c3ccc4nc(N5CC[C@H](NC(C)C)C5)ccc4n3)cc2o1 (single isomer, unassigned) [Compound 330]"
< 100 nM,< 100 nM,"Cn1cc2cc(-c3ccc4nc(N5CC[C@H](N[C@H]6C[C@H](F)C6)C5)ccc4n3)c(O)c(F)c2n1 (single isomer, unassigned) [Compound 347]"
100 to 1000 nM,100 to 1000 nM,"Cc1nc2cc(O)c(-c3ccc4nc(N5CC[C@@H](N[C@H]6C[C@H](F)C6)C5)ccc4n3)cc2o1 (single isomer, unassigned) [Compound 348]"
< 100 nM,< 100 nM,"Cn1cc2cc(-c3ccc4nc(N5CC[C@@H](N[C@H]6C[C@H](F)C6)C5)ccc4n3)c(O)c(F)c2n1 (single isomer, unassigned) [Compound 349]"
< 100 nM,< 100 nM,"Cc1nc2c(C)c(O)c(-c3ccc4nc(N5CC[C@H](N[C@H]6C[C@H](F)C6)C5)ccc4n3)cc2o1 (single isomer, unassigned) [Compound 351]"
< 100 nM,< 100 nM,"Cc1nc2c(C)c(O)c(-c3ccc4nc(N5CC[C@@H](N[C@H]6C[C@H](F)C6)C5)ccc4n3)cc2o1 (single isomer, unassigned) [Compound 352]"
< 100 nM,< 100 nM,"Cc1nc2c(F)c(O)c(-c3ccc4nc(N5CC[C@@H](NC6(C)CC6)C5)ccc4n3)cc2o1 (stereo in doubt) [Compound 326, 4-fluoro-2-methyl-6-{6-[(3 S)-3-[(1-methylcyclopropyl)amino]pyrrolidin-1-yl]-1,5-naphthyridin-2-yl}-1,3-benzoxazol-5-ol]"
< 100 nM,< 100 nM,"Cc1nc2c(F)c(O)c(-c3ccc4nc(N5CCC(NC6(C)CC6)C5)ccc4n3)cc2o1 (stereo in doubt) [Compound 327, 4-fluoro-2-methyl-6-{6-[(3R)-3-[(1-methylcyclopropyl)amino]pyrrolidin-1-yl]-1,5-naphthyridin-2-yl}-1,3-benzoxazol-5-ol]"
< 100 nM,< 100 nM,Cc1nc2c(C)c(O)c(-c3ccc4nc(N5CC[C@H](NC(C)(C)C)C5)ccc4n3)cc2o1 [Compound 214]
< 100 nM,< 100 nM,Cc1nc2c(C)c(O)c(-c3ccc4nc(N5CC[C@H](NC6CC6)C5)ccc4n3)cc2o1 [Compound 216]
< 100 nM,< 100 nM,Cc1nc2c(C)c(O)c(-c3ccc4nc(N5CC[C@@H](NC6CC6)C5)ccc4n3)cc2o1 [Compound 217]
< 100 nM,< 100 nM,Cn1cc2cc(-c3ccc4nc(N5CCC(NC6(C)CC6)C5)ccc4n3)c(O)cc2n1 (stereo not drawn) [Compound 219]
< 100 nM,100 to 1000 nM,Cc1nc2cc(O)c(-c3ccc4nc(N5CC[C@@H](NC6CCC6)C5)ccc4n3)cc2o1 [Compound 229]
< 100 nM,100 to 1000 nM,Cc1nc2cc(O)c(-c3ccc4nc(N5CC[C@H](NC6CCC6)C5)ccc4n3)cc2o1 [Compound 230]
< 100 nM,< 100 nM,Cc1nc2cc(O)c(-c3ccc4nc(N5CCC(NC(C)C)C5)ccc4n3)cc2o1 (stereo not drawn) [Compound 231]
< 100 nM,100 to 1000 nM,Cc1nc2c(C)c(O)c(-c3ccc4nc(N5CCC(NC6CCC6)C5)ccc4n3)cc2o1 (stereo not drawn) [Compound 235]
< 100 nM,100 to 1000 nM,Cc1nc2c(C)c(O)c(-c3ccc4nc(N5CC[C@@H](NC6CCC6)C5)ccc4n3)cc2o1 [Compound 236]
